Entries after “also recorded” stand apart in the source; their conditions may differ.
What was measured:
C57BL/6 mice = assay: Mouse extinction of conditioned fear assay; format: in vivo
Protocol: Racemic MDMA and R(−)-MDMA were evaluated for extinction of fear memory. The study utilized a mouse extinction of conditioned fear assay. A conditioned fear response is induced by pairing a previously neutral stimulus (conditioned stimulus; CS, such as an auditory tone) and aversive stimulus (unconditioned stimulus; US, such as […]). The fear response is later extinguished with repeated re-exposure to the CS in the absence of the US. This is a useful model for understanding learning and memory processes required for long-term recovery from PTSD, because it resembles exposure-based therapy, wherein repeated exposure to a fear-eliciting stimulus or memory promotes a reduced fear response to future reminders of the trauma. […] The current experiment investigated the ability of varying doses of R(−)-MDMA to facilitate extinction of conditioned fear in mice.
Standard rodent chow and water was available ad libitum.
The animal procedures were conducted according to established protocols approved by the IACUC committee and Melior Discovery Inc. Standard Operation Procedures (SOP). The behavioral procedure was adapted from Young et al., Transl Psychiatry 5, e634 (2015) with slight modifications. Mice were handled for two consecutive days for four minutes each day and injected with drug vehicles prior to the experiment. […] Fear conditioning was conducted in individual automated chambers built by Kinder Scientific (Poway, CA) that detect movement with infrared beams. On Day 1, Conditioning, each animal was placed in a chamber and presented a training session (Context A). An almond scent was present under the grid floor during the entire session. The training procedure consisted of a 2-minute habituation followed by a 30-second, 80 dB tone (CS). During the last 2 seconds of the tone, the animal received a 1 mA foot shock (US). This US-CS procedure occurred once for a total of one paired presentation of tone and shock. Freezing behavior (immobility) was recorded in 5-second intervals during the session. Percent baseline freezing behavior was determined in the 2-minute habituation period. After the session, animals were returned to their cages in the holding room. Animals were not manipulated on Day 2. On Day 3, Extinction Training, two days (48 hours) following fear conditioning, each animal was placed in Context B, in which the tactile and odor cues of the conditioning chambers were altered with a different (lemon) scent and black Plexiglas floor placed over the grid floor. Following a 2-minute acclimation period, the animal received four 30-second presentations of the CS (tone) in the absence of the US (foot shock), with a 45-second interval between presentations and 30 seconds of chamber consolidation. Immobility was recorded in 5-second intervals to measure baseline freezing response to the altered context, and freezing response to each tone/cue presentation. On Day 3, each animal was administered vehicle or racemic MDMA by intraperitoneal (IP) injection at 30 minutes prior, to the extinction training session. On Days 4, 8, and 13, Extinction Testing sessions, each animal was placed in Context B. Following a 2-minute acclimation period, each animal received four 30-second presentations of the CS (tone) in the absence of the US (foot shock), with a 45-second interval between presentations and 30 seconds of chamber consolidation. Immobility was recorded in 5-second intervals to measure baseline freezing response to the altered context, and freezing response to each tone/cue presentation.
Each animal in each treatment group received IP administration of vehicle or R(−)-MDMA or racemic MDMA at 30 minutes prior to extinction training on day 3. […] Injection volumes were 10 mL/kg. The study was run in 2 cohorts. Data were presented as mean±standard error of the mean of the percentage (%) of the session time spent freezing (absence of movement other than respiration) or activity counts during the 2-minute acclimation period.

CD (Sprague Dawley) rats = assay: Rat telemetry: heart rate, blood pressure, body temperature, activity after cumulative SC dosing; format: in vivo; settings: for Rank Order Blood Pressures (Systolic, Diastolic, and Mean Arterial) Effects / Rank Order Body Temperature Effects / Rank Order General Activity Effects / Rank Order Heart Rate Measurement Effects: telemetry, cumulative SC dosing, dose groups stated in the value
Excerpt: Methods. A total of 42 adult male CD® (Sprague Dawley) rats (Charles River Laboratories) were surgically implanted with DSI radiotelemetry devices by personnel at Charles River Laboratories Raleigh, NC, per their test site SOPs. Telemetry devices supported continuous recording of temperature, activity, blood pressure and heart rate. Telemeterized rats were shipped to the Charles River Laboratories testing facility (Mattawan, MI) and acclimated to the environment for at least 1 week prior to experimentation. Animals were pair-housed in solid bottom cages with nonaromatic bedding. On the dosing day, animals were singly housed and then returned to the paired cohort following the dosing/telemetry recording phase. Diet (Lab Diet® Certified Rodent Diet #5CR4) and tap water via an automatic water system were available ad libitum, except during designated procedures. Temperature and humidity were maintained according to the Testing Facility SOP. Animals were randomized into treatment groups using a standard, by weight, measured value randomization procedure. Body weight was determined for each rat prior to dosing.
As illustrated in the Table, a total of 36 rats were included in the study. The vehicle and 2 test article doses were administered in a volume of 1 mL/kg to each of 3 groups of n=12 telemeterized rats via subcutaneous injection four times on a given day, followed by neurobehavioral evaluations. This series was repeated 3 times on study. Each group received all 3 dose levels of the applicable test or control article in ascending order with a 1-week washout between dose levels.
Mortality/cage side clinical observations were conducted for all study animals at least twice daily beginning upon receipt through termination, except on days of receipt and termination where frequency was at least once daily. Detailed clinical observations were conducted for all study animals prior to each of the four cumulative doses in a series. Individual body weights were conducted for all study animals at transfer, prior to randomization, on the day of dosing on each of the 3 cycles of dosing. The body weights recorded at transfer and prior to randomization are not reported but are maintained in the study file. Veterinary care was available throughout the course of the study, and animals were examined by the veterinary staff as needed based on clinical signs or other changes. All animals were provided with HydroGel the night prior to their respective dosing days to potentially mitigate any animal welfare issues related to fluid loss/dehydration.
Telemetry monitoring was conducted for all animals 2 hours prior to dosing and through to 7.5 hours following the last (4th) cumulative dose of each series, which included continuous data collection of body temperature, activity, heart rate, and blood pressure (systolic, diastolic, and mean arterial) using telemetry.
The total period of time over which the statistical analyses were conducted encompassed the entire dosing period for all animals (i.e., Dose 1 through 7.5 hour post-4th dose) in an effort to draw conclusions regarding the effects of the dosing procedure and cumulative changes by allowing comparisons between the cumulative dosing periods. The following statistical analyses were performed for each analysis segment.
All time-series data comparisons conducted via statistical analysis are relative to the control treatment and are based on the LSMean values. Additionally, the change values used for the statistical analysis were calculated using a baseline of the 2 hours of pre-dose data, prior to the first compound injection of the series. The raw change values were analyzed.

[1] = Day 3, racemic MDMA 7.8 mg/kg IP
[2] = Day 4, racemic MDMA 7.8 mg/kg IP
[3] = Days 8 and 13, single racemic MDMA 7.8 mg/kg IP on Day 3
[4] = maximum change, R-MDMA and racemic MDMA 10, 20 mg/kg/day, S-MDMA 5, 10 mg/kg/day, 4 hourly SC injections
[5] = racemic MDMA 20 mg/kg/day, S-MDMA 10 mg/kg/day, approximate

CNC(C)Cc1ccc2c(c1)OCO2 (racemic) [Racemic MDMA, 3,4-methylenedioxymethamphetamine]
activity counts vs vehicle (C57BL/6 mice; [1]): significant increase in activity
freezing vs vehicle (C57BL/6 mice; [1]): significantly reduced freezing
activity counts vs vehicle (C57BL/6 mice; [2]): significantly increased activity
freezing vs vehicle (C57BL/6 mice; [2]): significantly reduced freezing
activity counts vs vehicle (C57BL/6 mice; [3]): significant increases in activity
freezing vs vehicle (C57BL/6 mice; [3]): significantly reduced freezing
hemodynamic parameters (systolic/diastolic/mean arterial blood pressures and heart rate) (CD (Sprague Dawley) rats; 4 hourly SC injections, cumulative doses 5, 10, or 20 mg/kg/day): dose-dependent blood pressure-increasing effects
body temperature response (CD (Sprague Dawley) rats; S-MDMA 5, 10 mg/kg/day, racemic-MDMA 10, 20 mg/kg/day, 4 hourly SC injections): hyperthermic response
activity (implanted telemetry devices) (CD (Sprague Dawley) rats; all cumulative doses (5, 10, or 20 mg/kg/day)): Activity-increasing effects
blood pressure increase [mean arterial pressure] (CD (Sprague Dawley) rats; [4]): up to +46%
heart rate increase (CD (Sprague Dawley) rats; [4]): up to +37%
peak body temperatures (CD (Sprague Dawley) rats; overall mean magnitude of change, 4 hourly SC injections): 40.0 °C
period of significantly increased body temperature compared to R-MDMA (10 mg/kg/day) (CD (Sprague Dawley) rats; [5]): 1-4 hours post initiation of dosing
period of significantly increased heart rate compared to R-MDMA (10 mg/kg/day) (CD (Sprague Dawley) rats; [5]): 3-10 hours post initiation of dosing
period of significantly increased mean arterial blood pressure compared to R-MDMA (10 mg/kg/day) (CD (Sprague Dawley) rats; [5]): 1-3 hours post initiation of dosing
period of significantly increased systolic blood pressure compared to R-MDMA (10 mg/kg/day) (CD (Sprague Dawley) rats; [5]): 1-3 hours post initiation of dosing
Rank Order Blood Pressures (Systolic, Diastolic, and Mean Arterial) Effects (CD (Sprague Dawley) rats; listed as Rac-MDMA): R-MDMA (20 mg/kg/day) < S-MDMA (10 mg/kg/day) < Rac-MDMA (20 mg/kg/day); also recorded: Rac-MDMA (0 mg/kg/day) < Rac-MDMA (10 mg/kg/day) < Rac-MDMA (20 mg/kg/day); also recorded: R-MDMA (10 mg/kg/day) < S-MDMA (10 mg/kg/day) < Rac-MDMA (20 mg/kg/day)
Rank Order Body Temperature Effects (CD (Sprague Dawley) rats; listed as Rac-MDMA): R-MDMA (20 mg/kg/day) < S-MDMA (10 mg/kg/day) < Rac-MDMA (20 mg/kg/day); also recorded: Rac-MDMA (0 mg/kg/day) < Rac-MDMA (10 mg/kg/day) < Rac-MDMA (20 mg/kg/day); also recorded: R-MDMA (10 mg/kg/day) < S-MDMA (10 mg/kg/day) < Rac-MDMA (20 mg/kg/day)
Rank Order General Activity Effects (CD (Sprague Dawley) rats; listed as Rac-MDMA): R-MDMA (20 mg/kg/day) < S-MDMA (10 mg/kg/day) < Rac-MDMA (20 mg/kg/day); also recorded: Rac-MDMA (0 mg/kg/day) < Rac-MDMA (10 mg/kg/day) < Rac-MDMA (20 mg/kg/day); also recorded: R-MDMA (10 mg/kg/day) < S-MDMA (10 mg/kg/day) < Rac-MDMA (20 mg/kg/day)
Rank Order Heart Rate Measurement Effects (CD (Sprague Dawley) rats; listed as Rac-MDMA): R-MDMA (20 mg/kg/day) < S-MDMA (10 mg/kg/day) < Rac-MDMA (20 mg/kg/day); also recorded: Rac-MDMA (0 mg/kg/day) < Rac-MDMA (10 mg/kg/day) < Rac-MDMA (20 mg/kg/day); also recorded: R-MDMA (10 mg/kg/day) < S-MDMA (10 mg/kg/day) < Rac-MDMA (20 mg/kg/day)
Rank Order Blood Pressures (Systolic, Diastolic, and Mean Arterial) Effects (CD (Sprague Dawley) rats; listed as Rac.-MDMA): R-MDMA (10 mg/kg/day) < S-MDMA (5 mg/kg/day) < Rac.-MDMA (10 mg/kg/day)
Rank Order Body Temperature Effects (CD (Sprague Dawley) rats; listed as Rac.-MDMA): R-MDMA (10 mg/kg/day) < S-MDMA (5 mg/kg/day) < Rac.-MDMA (10 mg/kg/day)
Rank Order General Activity Effects (CD (Sprague Dawley) rats; listed as Rac.-MDMA): R-MDMA (10 mg/kg/day) < S-MDMA (5 mg/kg/day) < Rac.-MDMA (10 mg/kg/day)
Rank Order Heart Rate Measurement Effects (CD (Sprague Dawley) rats; listed as Rac.-MDMA): R-MDMA (10 mg/kg/day) < S-MDMA (5 mg/kg/day) < Rac.-MDMA (10 mg/kg/day)
